Measured values as given in PMC10878397, “Development of Potent Dual BET/HDAC Inhibitors via Pharmacophore Merging and Structure-Guided Optimization” (ACS Chemical Biology, 2024).

Experiments:
BRPF1B = molecular target: T1, BRPF1B (Homo sapiens, UniProt P55201); test: DSF bromodomain selectivity panel; type: binding; conditions: 10 μM compound
T1 construct: purchased in-house (SGC Frankfurt recombinant bromodomain DSF panel)
Description: (§1) The effects of inhibitor binding on the apparent melting temperature of recombinant bromodomains were determined by DSF in a 96-well plate (Starlab) at a protein concentration of 2 μM with 10 μΜ compound in buffer containing 25 mM HEPES, pH 7.5, 150 mM NaCl, and 0.5 mM TCEP. […] Protein unfolding profiles were recorded using an MX3005P real-time qPCR instrument (Agilent; excitation/emission filters = 492/610 nm) while increasing the temperature from 25 to 95 °C at a heating rate of 3 °C/min. Tm values were calculated after fitting the fluorescence curves to the Boltzmann equation. Differences in melting temperature upon compound binding are given as ΔTm = Tm (protein with inhibitor) – Tm (protein with DMSO control). Measurements were performed in triplicates.

BRD2 (1) = molecular target: T2, BRD2 (1) (Homo sapiens, UniProt P25440); test: DSF bromodomain selectivity panel; type: binding; conditions: 10 μM compound
T2 construct: BRD2 (1); purchased in-house (SGC Frankfurt recombinant bromodomain DSF panel)
Description: as §1

BRD7 = molecular target: T3, BRD7 (Homo sapiens, UniProt Q9NPI1); test: DSF bromodomain selectivity panel; type: binding; conditions: 10 μM compound
T3 construct: purchased in-house (SGC Frankfurt recombinant bromodomain DSF panel)
Description: as §1

TAF1LA (1) = molecular target: T4, TAF1LA (1) (Homo sapiens, UniProt Q8IZX4); test: DSF bromodomain selectivity panel; type: binding; conditions: 10 μM compound
T4 construct: TAF1LA (1); purchased in-house (SGC Frankfurt recombinant bromodomain DSF panel)
Description: as §1

PB1A(4) = molecular target: T5, PB1A(4) (Homo sapiens, UniProt Q86U86); test: DSF bromodomain selectivity panel; type: binding; conditions: 10 μM compound
T5 construct: PB1A(4); purchased in-house (SGC Frankfurt recombinant bromodomain DSF panel)
Description: as §1

PB1A(6) = molecular target: T6, PB1A(6) (Homo sapiens, UniProt Q86U86); test: DSF bromodomain selectivity panel; type: binding; conditions: 10 μM compound
T6 construct: PB1A(6); purchased in-house (SGC Frankfurt recombinant bromodomain DSF panel)
Description: as §1

PB1A(5) = molecular target: T7, PB1A(5) (Homo sapiens, UniProt Q86U86); test: DSF bromodomain selectivity panel; type: binding; conditions: 10 μM compound
T7 construct: PB1A(5); purchased in-house (SGC Frankfurt recombinant bromodomain DSF panel)
Description: as §1

BRD1 = molecular target: T8, BRD1 (Homo sapiens, UniProt O95696); test: DSF bromodomain selectivity panel; type: binding; conditions: 10 μM compound
T8 construct: purchased in-house (SGC Frankfurt recombinant bromodomain DSF panel)
Description: as §1

TRIM24 = molecular target: T9, TRIM24 (Homo sapiens, UniProt O15164); test: DSF bromodomain selectivity panel; type: binding; conditions: 10 μM compound, construct containing tandem PHD-BD
T9 construct: purchased in-house (SGC Frankfurt recombinant bromodomain DSF panel)
Description: as §1

ATAD2A = molecular target: T10, ATAD2A (Homo sapiens, UniProt Q6PL18); test: DSF bromodomain selectivity panel; type: binding; conditions: 10 μM compound
T10 construct: purchased in-house (SGC Frankfurt recombinant bromodomain DSF panel)
Description: as §1

TRIM33B = molecular target: T11, TRIM33B (Homo sapiens, UniProt Q9UPN9); test: DSF bromodomain selectivity panel; type: binding; conditions: 10 μM compound, construct containing tandem PHD-BD
T11 construct: purchased in-house (SGC Frankfurt recombinant bromodomain DSF panel)
Description: as §1

PCAFA = molecular target: T12, PCAFA (Homo sapiens, UniProt Q92831); test: DSF bromodomain selectivity panel; type: binding; conditions: 10 μM compound
T12 construct: purchased in-house (SGC Frankfurt recombinant bromodomain DSF panel)
Description: as §1

EP300A = molecular target: T13, EP300A (Homo sapiens, UniProt Q09472); test: DSF bromodomain selectivity panel; type: binding; conditions: 10 μM compound
T13 construct: purchased in-house (SGC Frankfurt recombinant bromodomain DSF panel)
Description: as §1

TRIM28 = molecular target: T14, TRIM28 (Homo sapiens, UniProt Q13263); test: DSF bromodomain selectivity panel; type: binding; conditions: 10 μM compound, construct containing tandem PHD-BD
T14 construct: purchased in-house (SGC Frankfurt recombinant bromodomain DSF panel)
Description: as §1

BRD3 (2) = molecular target: T15, BRD3 (2) (Homo sapiens, UniProt Q15059); test: DSF bromodomain selectivity panel; type: binding; conditions: 10 μM compound
T15 construct: BRD3 (2); purchased in-house (SGC Frankfurt recombinant bromodomain DSF panel)
Description: as §1

SMARCA2A = molecular target: T16, SMARCA2A (Homo sapiens, UniProt P51531); test: DSF bromodomain selectivity panel; type: binding; conditions: 10 μM compound
T16 construct: purchased in-house (SGC Frankfurt recombinant bromodomain DSF panel)
Description: as §1

PB1A(3) = molecular target: T17, PB1A(3) (Homo sapiens, UniProt Q86U86); test: DSF bromodomain selectivity panel; type: binding; conditions: 10 μM compound
T17 construct: PB1A(3); purchased in-house (SGC Frankfurt recombinant bromodomain DSF panel)
Description: as §1

TAF1 (1) = molecular target: T18, TAF1 (1) (Homo sapiens, UniProt P21675); test: DSF bromodomain selectivity panel; type: binding; conditions: 10 μM compound
T18 construct: TAF1 (1); purchased in-house (SGC Frankfurt recombinant bromodomain DSF panel)
Description: as §1

BRDT(1) = molecular target: T19, BRDT(1) (Homo sapiens, UniProt Q58F21); test: DSF bromodomain selectivity panel; type: binding; conditions: 10 μM compound
T19 construct: BRDT(1); purchased in-house (SGC Frankfurt recombinant bromodomain DSF panel)
Description: as §1

BRD2 (2) = molecular target: T20, BRD2 (2) (Homo sapiens, UniProt P25440); test: DSF bromodomain selectivity panel; type: binding; conditions: 10 μM compound
T20 construct: BRD2 (2); purchased in-house (SGC Frankfurt recombinant bromodomain DSF panel)
Description: as §1

SP100 = test: DSF bromodomain selectivity panel; type: binding; conditions: 10 μM compound
Description: as §1

BRD3 (1) = molecular target: T21, BRD3 (1) (Homo sapiens, UniProt Q15059); test: DSF bromodomain selectivity panel; type: binding; conditions: 10 μM compound
T21 construct: BRD3 (1); purchased in-house (SGC Frankfurt recombinant bromodomain DSF panel)
Description: as §1

TAF1 (2) = molecular target: T22, TAF1 (2) (Homo sapiens, UniProt P21675); test: DSF bromodomain selectivity panel; type: binding; conditions: 10 μM compound
T22 construct: TAF1 (2); purchased in-house (SGC Frankfurt recombinant bromodomain DSF panel)
Description: as §1

CREBBPA = molecular target: T23, CREBBPA (Homo sapiens, UniProt Q92793); test: DSF bromodomain selectivity panel; type: binding; conditions: 10 μM compound
T23 construct: purchased in-house (SGC Frankfurt recombinant bromodomain DSF panel)
Description: as §1

TAF1LA (2) = molecular target: T24, TAF1LA (2) (Homo sapiens, UniProt Q8IZX4); test: DSF bromodomain selectivity panel; type: binding; conditions: 10 μM compound
T24 construct: TAF1LA (2); purchased in-house (SGC Frankfurt recombinant bromodomain DSF panel)
Description: as §1

HDAC4 = molecular target: T25, HDAC4 (Homo sapiens, UniProt P56524); test: HDAC selectivity profile (Reaction Biology); type: biochemical; conditions: no inhibitor control as 100%, read-out: % Enzyme activity HDAC4
T25 construct: purchased Reaction Biology
Description: (§2) The reactions were performed by Reaction Biology using a protease-coupled assay with fluorogenic substrates where, after deacetylation by the HDAC and subsequent proteolytic digest, the free fluorophore 7-amino-4-methyl coumarin (AMC) can be quantified.[60] The following substrates were used for activity assays: HDACs 1, 2, 3, and 6: fluorogenic tetrapeptide from p53 residues 379–382 (RHKK(Ac) AMC); HDACs 4, 5, 7, 9, and 11: fluorogenic HDAC class2a substrate (trifluoroacetyl lysine); HDAC8: twice acetylated fluorogenic tetrapeptide from p53 residues 379–382 (RHK(Ac) K(Ac) AMC); HDAC10: Ac-spermidine-AMC. Data are given as % residual activity compared with the uninhibited control reaction.

HDAC10 = molecular target: T26, HDAC10 (Homo sapiens, UniProt Q969S8); test: HDAC selectivity profile (Reaction Biology); type: biochemical; conditions: no inhibitor control as 100%, read-out: % Enzyme activity HDAC10
T26 construct: purchased Reaction Biology
Description: as §2

T25 sequence (P56524 whole entry): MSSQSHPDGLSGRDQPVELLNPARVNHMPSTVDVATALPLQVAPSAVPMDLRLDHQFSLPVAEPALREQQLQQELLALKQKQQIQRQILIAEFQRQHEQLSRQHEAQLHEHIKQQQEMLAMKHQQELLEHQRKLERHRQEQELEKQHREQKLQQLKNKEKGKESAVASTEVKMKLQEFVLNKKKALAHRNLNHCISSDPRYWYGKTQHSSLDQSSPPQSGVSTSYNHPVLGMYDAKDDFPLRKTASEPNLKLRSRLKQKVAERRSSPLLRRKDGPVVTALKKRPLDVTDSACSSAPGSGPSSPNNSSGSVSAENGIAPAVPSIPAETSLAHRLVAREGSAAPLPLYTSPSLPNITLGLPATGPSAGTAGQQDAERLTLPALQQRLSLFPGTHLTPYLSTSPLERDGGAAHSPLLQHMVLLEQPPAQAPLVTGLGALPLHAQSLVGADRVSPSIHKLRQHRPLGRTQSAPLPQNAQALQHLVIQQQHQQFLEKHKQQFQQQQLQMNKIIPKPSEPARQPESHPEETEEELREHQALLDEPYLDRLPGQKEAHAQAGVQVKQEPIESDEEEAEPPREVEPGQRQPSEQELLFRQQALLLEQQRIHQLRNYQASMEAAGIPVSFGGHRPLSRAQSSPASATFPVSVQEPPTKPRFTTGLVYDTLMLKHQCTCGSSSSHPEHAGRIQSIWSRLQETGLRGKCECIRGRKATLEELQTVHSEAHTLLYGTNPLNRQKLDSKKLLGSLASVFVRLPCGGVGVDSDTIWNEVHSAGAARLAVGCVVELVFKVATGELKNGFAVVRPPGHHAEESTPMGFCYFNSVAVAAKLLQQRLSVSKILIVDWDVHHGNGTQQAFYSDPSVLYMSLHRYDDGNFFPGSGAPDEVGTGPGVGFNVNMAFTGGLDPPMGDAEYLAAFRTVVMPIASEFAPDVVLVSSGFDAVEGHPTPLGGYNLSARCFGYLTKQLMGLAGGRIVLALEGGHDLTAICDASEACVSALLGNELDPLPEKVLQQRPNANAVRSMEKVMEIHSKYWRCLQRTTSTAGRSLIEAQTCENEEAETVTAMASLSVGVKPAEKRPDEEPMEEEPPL
T11 sequence (Q9UPN9 1-1110 isoform Q9UPN9-2): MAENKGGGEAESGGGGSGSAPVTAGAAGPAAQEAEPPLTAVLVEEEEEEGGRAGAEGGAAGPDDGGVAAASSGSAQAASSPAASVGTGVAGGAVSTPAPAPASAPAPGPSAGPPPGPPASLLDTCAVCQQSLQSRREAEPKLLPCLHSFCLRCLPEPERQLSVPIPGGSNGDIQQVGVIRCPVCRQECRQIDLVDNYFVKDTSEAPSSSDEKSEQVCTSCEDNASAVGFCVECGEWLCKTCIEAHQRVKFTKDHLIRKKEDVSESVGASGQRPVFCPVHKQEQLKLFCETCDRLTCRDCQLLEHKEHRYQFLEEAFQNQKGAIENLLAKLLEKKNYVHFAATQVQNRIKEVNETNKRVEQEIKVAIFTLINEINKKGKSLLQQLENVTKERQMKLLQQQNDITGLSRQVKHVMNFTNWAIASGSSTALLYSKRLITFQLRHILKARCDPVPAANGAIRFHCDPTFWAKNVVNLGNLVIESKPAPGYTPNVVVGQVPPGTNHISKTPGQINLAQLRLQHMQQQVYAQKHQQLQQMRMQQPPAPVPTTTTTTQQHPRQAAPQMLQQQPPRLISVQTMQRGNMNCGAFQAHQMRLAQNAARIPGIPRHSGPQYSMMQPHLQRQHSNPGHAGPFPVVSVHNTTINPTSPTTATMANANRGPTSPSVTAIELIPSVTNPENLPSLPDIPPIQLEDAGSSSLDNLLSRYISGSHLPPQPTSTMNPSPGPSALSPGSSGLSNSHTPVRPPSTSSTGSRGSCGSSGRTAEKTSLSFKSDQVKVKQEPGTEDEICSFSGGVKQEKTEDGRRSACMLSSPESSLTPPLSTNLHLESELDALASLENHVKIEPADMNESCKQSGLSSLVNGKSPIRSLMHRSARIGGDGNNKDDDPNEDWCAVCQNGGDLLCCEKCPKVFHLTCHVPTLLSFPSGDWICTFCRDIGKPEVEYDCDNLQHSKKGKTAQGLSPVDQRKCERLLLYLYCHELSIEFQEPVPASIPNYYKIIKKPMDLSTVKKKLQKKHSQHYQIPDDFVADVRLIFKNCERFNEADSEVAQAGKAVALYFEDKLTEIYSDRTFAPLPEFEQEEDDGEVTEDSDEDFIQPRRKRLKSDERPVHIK
T21 sequence (Q15059 24-144 limits assumed): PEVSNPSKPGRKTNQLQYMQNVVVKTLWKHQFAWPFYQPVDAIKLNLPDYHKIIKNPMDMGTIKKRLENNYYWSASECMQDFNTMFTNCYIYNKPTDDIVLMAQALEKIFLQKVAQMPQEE
T7 sequence (Q86U86 645-766 limits assumed): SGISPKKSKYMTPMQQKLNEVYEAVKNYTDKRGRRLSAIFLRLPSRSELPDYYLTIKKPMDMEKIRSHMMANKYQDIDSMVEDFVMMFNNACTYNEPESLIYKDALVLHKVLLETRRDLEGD
T22 sequence (P21675 1522-1656 limits assumed): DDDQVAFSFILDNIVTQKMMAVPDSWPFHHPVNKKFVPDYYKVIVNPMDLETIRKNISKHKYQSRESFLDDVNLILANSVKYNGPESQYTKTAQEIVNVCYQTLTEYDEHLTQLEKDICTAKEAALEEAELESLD
T18 sequence (P21675 1397-1505 limits assumed): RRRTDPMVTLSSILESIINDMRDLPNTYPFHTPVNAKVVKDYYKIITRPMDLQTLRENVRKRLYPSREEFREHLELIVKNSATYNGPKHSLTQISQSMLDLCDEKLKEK
T17 sequence (Q86U86 388-494 limits assumed): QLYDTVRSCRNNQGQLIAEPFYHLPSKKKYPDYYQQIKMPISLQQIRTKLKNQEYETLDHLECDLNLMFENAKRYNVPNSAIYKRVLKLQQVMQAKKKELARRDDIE
T26 sequence (Q969S8 whole entry): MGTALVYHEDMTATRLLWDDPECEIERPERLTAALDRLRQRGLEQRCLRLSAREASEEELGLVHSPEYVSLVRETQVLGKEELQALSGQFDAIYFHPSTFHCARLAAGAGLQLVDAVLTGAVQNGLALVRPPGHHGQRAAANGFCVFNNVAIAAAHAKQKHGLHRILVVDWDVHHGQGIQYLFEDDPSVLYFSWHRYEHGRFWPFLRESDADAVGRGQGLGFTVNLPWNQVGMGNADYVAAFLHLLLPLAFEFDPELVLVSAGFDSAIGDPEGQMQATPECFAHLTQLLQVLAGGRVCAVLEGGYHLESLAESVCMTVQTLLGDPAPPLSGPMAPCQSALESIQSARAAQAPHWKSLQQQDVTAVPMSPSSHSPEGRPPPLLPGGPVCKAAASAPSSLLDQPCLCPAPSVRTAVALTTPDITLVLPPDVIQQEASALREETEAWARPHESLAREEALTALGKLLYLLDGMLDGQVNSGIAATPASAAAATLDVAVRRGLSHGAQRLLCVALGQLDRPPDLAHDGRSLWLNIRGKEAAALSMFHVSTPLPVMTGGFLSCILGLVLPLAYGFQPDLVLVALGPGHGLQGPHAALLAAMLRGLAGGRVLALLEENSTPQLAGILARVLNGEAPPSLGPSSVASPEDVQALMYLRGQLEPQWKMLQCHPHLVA
T14 sequence (Q13263 whole entry): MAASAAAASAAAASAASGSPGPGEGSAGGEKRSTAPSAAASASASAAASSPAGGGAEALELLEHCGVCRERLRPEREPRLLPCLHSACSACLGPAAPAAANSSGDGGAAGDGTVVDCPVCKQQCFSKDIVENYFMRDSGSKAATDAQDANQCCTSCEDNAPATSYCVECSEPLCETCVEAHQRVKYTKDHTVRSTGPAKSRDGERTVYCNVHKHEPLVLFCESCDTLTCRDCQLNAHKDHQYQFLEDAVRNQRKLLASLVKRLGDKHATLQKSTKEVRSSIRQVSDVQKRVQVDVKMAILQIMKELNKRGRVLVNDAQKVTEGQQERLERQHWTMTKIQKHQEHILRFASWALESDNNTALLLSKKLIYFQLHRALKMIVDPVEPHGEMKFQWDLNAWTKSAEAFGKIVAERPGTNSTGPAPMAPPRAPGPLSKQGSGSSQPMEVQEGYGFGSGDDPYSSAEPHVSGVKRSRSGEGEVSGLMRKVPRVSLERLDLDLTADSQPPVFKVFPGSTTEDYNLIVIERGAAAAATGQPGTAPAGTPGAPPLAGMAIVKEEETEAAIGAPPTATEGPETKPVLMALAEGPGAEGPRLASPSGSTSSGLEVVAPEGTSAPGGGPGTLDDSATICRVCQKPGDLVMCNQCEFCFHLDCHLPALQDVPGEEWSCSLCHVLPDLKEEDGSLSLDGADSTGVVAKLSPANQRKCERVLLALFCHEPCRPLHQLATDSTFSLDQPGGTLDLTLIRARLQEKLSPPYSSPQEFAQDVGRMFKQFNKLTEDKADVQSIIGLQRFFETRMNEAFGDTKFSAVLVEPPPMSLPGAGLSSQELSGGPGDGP
T2 sequence (P25440 71-194 limits assumed): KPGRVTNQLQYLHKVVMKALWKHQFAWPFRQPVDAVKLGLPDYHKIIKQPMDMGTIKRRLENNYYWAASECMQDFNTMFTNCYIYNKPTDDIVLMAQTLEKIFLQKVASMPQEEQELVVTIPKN
T6 sequence (Q86U86 773-914 limits assumed): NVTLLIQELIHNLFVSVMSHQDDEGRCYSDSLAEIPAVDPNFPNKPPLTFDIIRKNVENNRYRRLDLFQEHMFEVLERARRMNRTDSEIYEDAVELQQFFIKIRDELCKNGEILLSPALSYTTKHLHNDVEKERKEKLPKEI
T20 sequence (P25440 344-455 limits assumed): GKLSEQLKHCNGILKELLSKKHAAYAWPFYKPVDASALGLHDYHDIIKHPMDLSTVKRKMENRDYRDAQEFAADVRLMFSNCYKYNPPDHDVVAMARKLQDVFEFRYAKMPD
T4 sequence (Q8IZX4 1392-1522 limits assumed): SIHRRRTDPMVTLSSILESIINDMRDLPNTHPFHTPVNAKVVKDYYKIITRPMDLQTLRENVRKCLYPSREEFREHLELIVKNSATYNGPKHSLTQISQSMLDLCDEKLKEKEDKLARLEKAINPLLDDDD

Row | Structure (SMILES) | Mean Tm BRPF1B (BRPF1B) [K] | Mean Tm BRD2 (1) (BRD2 (1)) [K] | Mean Tm BRD7 (BRD7) [K] | Mean Tm TAF1LA (1) (TAF1LA (1)) [K] | Mean Tm PB1A(4) (PB1A(4)) [K] | Mean Tm PB1A(6) (PB1A(6)) [K] | Mean Tm PB1A(5) (PB1A(5)) [K] | Mean Tm BRD1 (BRD1) [K] | Mean Tm TRIM24 (TRIM24) [K] | Mean Tm ATAD2A (ATAD2A) [K] | Mean Tm TRIM33B (TRIM33B) [K] | Mean Tm PCAFA (PCAFA) [K] | Mean Tm EP300A (EP300A) [K] | Mean Tm TRIM28 (TRIM28) [K] | Mean Tm BRD3 (2) (BRD3 (2)) [K] | Mean Tm SMARCA2A (SMARCA2A) [K] | Mean Tm PB1A(3) (PB1A(3)) [K] | Mean Tm TAF1 (1) (TAF1 (1)) [K] | Mean Tm BRDT(1) (BRDT(1)) [K] | Mean Tm BRD2 (2) (BRD2 (2)) [K] | also measured
1 | Cn1cc(-c2ccc(C(=O)Nc3ccccc3N)cc2)c2cc[nH]c2c1=O [NB462] | 0.8 ± 0.1 | 3.1 ± 0.5 | 5.6 ± 0.3 | 0.3 ± 0.1 | 0.1 ± 0.1 | 0.3 ± 0.1 | 0.0 ± 0.1 | 0.2 ± 0.1 | 0.6 ± 0.1 | 0.4 ± 0.2 | 0.4 ± 0.1 | 0.1 ± 0.4 | 2.0 ± 0.3 | 0.6 ± 0.4 | 6.1 ± 0.0 | -0.1 ± 0.1 | 0.5 ± 0.2 | 0.4 ± 0.1 | 3.0 ± 0.2 | 5.3 ± 0.1 | Mean Tm SP100 (SP100): -0.2 ± 0.1 K; Mean Tm BRD3 (1) (BRD3 (1)): 3.8 ± 0.3 K; Mean Tm TAF1 (2) (TAF1 (2)): 1.3 ± 0.0 K; Mean Tm CREBBPA (CREBBPA): 1.8 ± 0.3 K; Mean Tm TAF1LA (2) (TAF1LA (2)): 1.7 ± 0.1 K
2 | Cn1cc(-c2ccc(C(=O)Nc3cc(-c4ccccc4)ccc3N)cc2)c2cc[nH]c2c1=O [NB503] | 0.8 ± 0.3 | 3.2 ± 0.5 | 1.1 ± 0.2 | 0.6 ± 0.3 | 1.0 ± 0.6 | 1.3 ± 0.1 | 1.1 ± 0.2 | 1.1 ± 0.1 | 0.7 ± 0.5 | -1.3 ± 0.1 | 0.5 ± 0.0 | 1.9 ± 0.2 | 1.0 ± 0.3 | 0.0 ± 0.2 | 4.6 ± 0.7 | 1.2 ± 0.5 | 0.0 ± 0.0 | 1.0 ± 0.2 | 3.3 ± 0.1 | 3.6 ± 0.4 | Mean Tm SP100 (SP100): 0.4 ± 0.1 K; Mean Tm BRD3 (1) (BRD3 (1)): 3.8 ± 0.4 K; Mean Tm TAF1 (2) (TAF1 (2)): 1.7 ± 0.1 K; Mean Tm CREBBPA (CREBBPA): 1.4 ± 0.3 K; Mean Tm TAF1LA (2) (TAF1LA (2)): 1.2 ± 0.0 K
3 | Cn1cc(-c2ccc(C(=O)Nc3cc(-c4ccccc4)ccc3N)nc2)c2cc[nH]c2c1=O [NB512] | – | – | – | – | – | – | – | – | – | – | – | – | – | – | – | – | – | – | – | – | remaining activity at 1 µM (HDAC4; 1 µM NB512): 91.5%; remaining activity at 10 µM (HDAC4; 10 µM NB512): 82.4%; remaining activity at 1 µM (HDAC10; 1 µM NB512): 98.1%; remaining activity at 10 µM (HDAC10; 10 µM NB512): 98.6%
